In publication PMC4754968 (Clinical genitourinary cancer, 2014):

Legend:
[1] = Everolimus single-dose pharmacokinetics; type: in vivo, patients; conditions: for AUCinf % extrapolated: single dose everolimus 30 mg
[2] = human, in vivo, 30 mg
[3] = cited from earlier work
[4] = cited from earlier work; remark: listed apart in the source
metastatic RCC [5] = conditions: metastatic RCC previously treated with VEGFR tyrosine kinase inhibitor; ref [6]; cited from earlier work
[6] = Sunitinib multiple-dose pharmacokinetics; type: in vivo, patients; conditions: for AUC / CL/F / Cmax / half-life: human, oral; for AUC / CL/F / Cmax / half-life / Cmin / Tmin: plasma, multiple dose (dose 14), sunitinib 50 mg daily with everolimus 30 mg weekly; for AUC: AUCtau, dosing interval 24 hours; for CL/F: dose/AUCtau
metastatic RCC [7] = conditions: front line metastatic RCC setting; ref [1],[2]; cited from earlier work

Question: Which Tmax ([1]; human, plasma, po) does the source give for `CO[C@H]1C[C@@H]2CC[C@@H](C)[C@@](O)(O2)C(=O)C(=O)N2CCCC[C@H]2C(=O)O[C@H]([C@H](C)C[C@@H]2CC[C@@H](OCCO)[C@H](OC)C2)CC(=O)[C@H](C)/C=C(\C)[C@@H](O)[C@@H](OC)C(=O)[C@H](C)C[C@H](C)/C=C/C=C/C=C/1C` [Everolimus] here?
Answer: 2 h

Question: And the AUC(0-inf) ([1]; human, plasma, po, AUCinf, subject 1002, after first oral dose of everolimus 30 mg, with sunitinib 50 mg daily, plasma)?
Answer: 1560 ng·h/mL

Question: And the CL/F ([1]; human, plasma, po, CL/F, subject 1002, after first oral dose of everolimus 30 mg, with sunitinib 50 mg daily, plasma)?
Answer: 3.34 mL/min/kg

Question: And the Cmax ([1]; human, plasma, po, Cmax, subject 1002, after first oral dose of everolimus 30 mg, with sunitinib 50 mg daily, plasma)?
Answer: 82.3 ng/mL

Question: And the half-life ([1]; human, plasma, po, t1/2, subject 1002, after first oral dose of everolimus 30 mg, with sunitinib 50 mg daily, plasma)?
Answer: 25.7 h

Question: And the AUCinf % extrapolated ([1]; subject 1002)?
Answer: 48.7%

Question: What about the AUCinf % extrapolated ([1]; subject 1003) of the same compound?
Answer: 35.2%

Question: What about the “AUCtau relative to AUCinf after the first dose” value [2] of the same compound?
Answer: almost double

Question: And the bioavailability [3]?
Answer: 16%

Question: What about the eliminated in bile [4] of the same compound?
Answer: 98%

Question: What about the “progression-free survival (PFS) over placebo” value (metastatic RCC [5]) of the same compound?
Answer: significant improvement

Question: Which results are given for `CCN(CC)CCNC(=O)c1c(C)[nH]c(/C=C2\C(=O)Nc3ccc(F)cc32)c1C` [Sunitinib, Sunitinib malate]?
Answer: AUC ([6]; subject 1001): 1860 ng·h/mL; AUC ([6]; subject 1002): 2770 ng·h/mL; AUC ([6]; subject 1003): 2300 ng·h/mL; CL/F ([6]; subject 1001): 7.13 mL/min/kg; CL/F ([6]; subject 1002): 3.12 mL/min/kg; CL/F ([6]; subject 1003): 5.34 mL/min/kg; Cmax ([6]; subject 1001): 83.1 ng/mL; Cmax ([6]; subject 1002): 142 ng/mL; Cmax ([6]; subject 1003): 106 ng/mL; half-life ([6]; t1/2, subject 1002): 33 h; half-life ([6]; t1/2, subject 1003): 85.5 h; AUCtau compared with sunitinib monotherapy ([6]; same dose of sunitinib (50 mg/d), compared with Faivre, et al): substantially higher; Cmin ([6]; subject 1001): 59.4 ng/mL; Tmin ([6]; subject 1001): 2 h; Cmin ([6]; subject 1002): 80.3 ng/mL; Tmin ([6]; subject 1002): 0 h; progression free survival (PFS) (metastatic RCC [7]): less than a year

Question: Which “progression free survival (PFS)” value (metastatic RCC [7]) does the source give for `Cc1ccc(Nc2nccc(N(C)c3ccc4c(C)n(C)nc4c3)n2)cc1S(N)(=O)=O` [pazopanib] here?
Answer: less than a year
